Assay results: publication PMC10046369, “Low-Affinity/High-Selectivity Dopamine Transport Inhibition Sufficient to Rescue Cognitive Functions in the Aging Rat” (Biomolecules, 2023)

Columns and labels:
Assay in all cases: biochemical
Parameters in all cases: KINOMEscan competition binding panel, per cent of control
Details in all cases: read-out: %Ctrl @ 2800nM
[1] = target: BLK (Homo sapiens, UniProt P51451)
How it was run: (§1)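 Values are expressed as percent of control, calculated as ((test − positive control)/(negative control − positive control)) × 100, so lower numbers mean stronger hits. Binding was measured by KINOMEscan competition assay in a 450-kinase human panel including disease mutants, using the contractor's validated protocol.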

[2] = target: HIPK4 (Homo sapiens, UniProt Q8NE63)
Chain of HIPK4 (Q8NE63 whole entry): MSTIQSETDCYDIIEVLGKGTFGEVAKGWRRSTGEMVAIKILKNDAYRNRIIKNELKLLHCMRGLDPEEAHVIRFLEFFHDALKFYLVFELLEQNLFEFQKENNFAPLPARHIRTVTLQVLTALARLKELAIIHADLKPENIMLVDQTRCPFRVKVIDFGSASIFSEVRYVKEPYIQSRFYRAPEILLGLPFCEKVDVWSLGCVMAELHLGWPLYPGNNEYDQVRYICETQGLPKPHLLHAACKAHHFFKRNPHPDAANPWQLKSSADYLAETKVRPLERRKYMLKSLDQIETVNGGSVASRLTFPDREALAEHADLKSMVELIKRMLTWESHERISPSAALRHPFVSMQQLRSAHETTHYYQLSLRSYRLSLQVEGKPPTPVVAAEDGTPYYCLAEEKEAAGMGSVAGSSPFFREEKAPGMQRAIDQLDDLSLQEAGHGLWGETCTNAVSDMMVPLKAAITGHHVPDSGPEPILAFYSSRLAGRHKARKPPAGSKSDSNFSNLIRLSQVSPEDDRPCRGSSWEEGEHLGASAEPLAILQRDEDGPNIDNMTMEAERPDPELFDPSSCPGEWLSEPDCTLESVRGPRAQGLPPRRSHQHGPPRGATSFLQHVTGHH
How it was run: as §1

[3] = target: T1, PFTK1 (Homo sapiens, UniProt O94921)
T1 construct: gene CDK14
T1 sequence (O94921 whole entry): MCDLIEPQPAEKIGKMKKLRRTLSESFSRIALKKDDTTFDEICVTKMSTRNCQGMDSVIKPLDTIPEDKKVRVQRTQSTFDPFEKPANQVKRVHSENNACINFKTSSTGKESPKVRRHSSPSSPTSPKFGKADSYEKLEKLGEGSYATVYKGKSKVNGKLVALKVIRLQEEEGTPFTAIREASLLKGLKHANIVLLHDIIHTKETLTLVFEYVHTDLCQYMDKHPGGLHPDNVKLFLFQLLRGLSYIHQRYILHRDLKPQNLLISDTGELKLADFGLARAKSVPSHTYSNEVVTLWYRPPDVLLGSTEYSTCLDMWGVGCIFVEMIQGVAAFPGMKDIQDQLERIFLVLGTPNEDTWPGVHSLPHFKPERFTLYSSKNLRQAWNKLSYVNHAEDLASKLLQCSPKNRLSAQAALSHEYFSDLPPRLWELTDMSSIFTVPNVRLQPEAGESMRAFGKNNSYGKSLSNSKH
How it was run: as §1

[4] = target: T2, TIE2 (Homo sapiens, UniProt Q02763)
T2 construct: gene TEK
T2 sequence (Q02763 whole entry): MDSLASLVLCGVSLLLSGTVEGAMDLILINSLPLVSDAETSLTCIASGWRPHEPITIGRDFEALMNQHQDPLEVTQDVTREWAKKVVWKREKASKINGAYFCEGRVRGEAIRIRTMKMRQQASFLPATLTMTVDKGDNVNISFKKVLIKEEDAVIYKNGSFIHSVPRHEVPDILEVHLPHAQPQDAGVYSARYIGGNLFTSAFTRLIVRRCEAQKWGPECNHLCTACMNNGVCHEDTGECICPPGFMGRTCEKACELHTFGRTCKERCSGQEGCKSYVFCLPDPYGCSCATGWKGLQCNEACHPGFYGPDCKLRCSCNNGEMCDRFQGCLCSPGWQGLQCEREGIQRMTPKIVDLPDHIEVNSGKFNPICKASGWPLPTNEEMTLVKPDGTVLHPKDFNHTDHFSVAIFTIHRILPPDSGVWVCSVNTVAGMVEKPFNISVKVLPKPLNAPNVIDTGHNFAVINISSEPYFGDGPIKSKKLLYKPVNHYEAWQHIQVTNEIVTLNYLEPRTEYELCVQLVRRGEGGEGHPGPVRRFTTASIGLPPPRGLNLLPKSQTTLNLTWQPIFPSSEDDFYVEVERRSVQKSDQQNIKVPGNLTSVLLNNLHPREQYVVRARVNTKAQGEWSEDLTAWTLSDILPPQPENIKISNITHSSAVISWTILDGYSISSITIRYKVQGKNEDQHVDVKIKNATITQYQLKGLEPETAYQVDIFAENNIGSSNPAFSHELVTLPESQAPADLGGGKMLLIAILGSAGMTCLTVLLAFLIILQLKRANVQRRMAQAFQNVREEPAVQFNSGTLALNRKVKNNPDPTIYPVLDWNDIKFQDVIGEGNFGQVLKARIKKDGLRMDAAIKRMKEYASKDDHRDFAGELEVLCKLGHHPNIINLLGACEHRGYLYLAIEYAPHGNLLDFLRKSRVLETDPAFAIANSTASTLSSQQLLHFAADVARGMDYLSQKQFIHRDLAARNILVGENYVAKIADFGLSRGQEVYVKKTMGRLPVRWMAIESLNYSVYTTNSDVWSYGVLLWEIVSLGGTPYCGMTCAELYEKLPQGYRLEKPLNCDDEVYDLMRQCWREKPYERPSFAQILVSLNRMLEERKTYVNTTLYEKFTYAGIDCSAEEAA
How it was run: as §1

[5] = target: T3, PFCDPK1(P.falciparum) (Plasmodium falciparum, UniProt P62344)
T3 construct: gene CDPK1
T3 sequence (P62344 whole entry): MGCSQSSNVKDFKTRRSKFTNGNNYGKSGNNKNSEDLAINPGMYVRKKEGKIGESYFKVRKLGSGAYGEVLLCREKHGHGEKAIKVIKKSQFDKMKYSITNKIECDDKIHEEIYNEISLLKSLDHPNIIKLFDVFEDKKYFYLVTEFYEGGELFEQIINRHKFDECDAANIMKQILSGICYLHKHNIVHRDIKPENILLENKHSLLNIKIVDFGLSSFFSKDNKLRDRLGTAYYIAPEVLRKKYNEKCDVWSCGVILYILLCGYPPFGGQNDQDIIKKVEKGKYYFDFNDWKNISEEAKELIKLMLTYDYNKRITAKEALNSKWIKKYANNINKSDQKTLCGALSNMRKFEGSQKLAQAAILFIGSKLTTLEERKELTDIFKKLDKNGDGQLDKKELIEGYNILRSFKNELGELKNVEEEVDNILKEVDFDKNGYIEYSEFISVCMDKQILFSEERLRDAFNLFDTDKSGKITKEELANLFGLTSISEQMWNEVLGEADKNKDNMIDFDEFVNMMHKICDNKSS

Chain of BLK (P51451 whole entry): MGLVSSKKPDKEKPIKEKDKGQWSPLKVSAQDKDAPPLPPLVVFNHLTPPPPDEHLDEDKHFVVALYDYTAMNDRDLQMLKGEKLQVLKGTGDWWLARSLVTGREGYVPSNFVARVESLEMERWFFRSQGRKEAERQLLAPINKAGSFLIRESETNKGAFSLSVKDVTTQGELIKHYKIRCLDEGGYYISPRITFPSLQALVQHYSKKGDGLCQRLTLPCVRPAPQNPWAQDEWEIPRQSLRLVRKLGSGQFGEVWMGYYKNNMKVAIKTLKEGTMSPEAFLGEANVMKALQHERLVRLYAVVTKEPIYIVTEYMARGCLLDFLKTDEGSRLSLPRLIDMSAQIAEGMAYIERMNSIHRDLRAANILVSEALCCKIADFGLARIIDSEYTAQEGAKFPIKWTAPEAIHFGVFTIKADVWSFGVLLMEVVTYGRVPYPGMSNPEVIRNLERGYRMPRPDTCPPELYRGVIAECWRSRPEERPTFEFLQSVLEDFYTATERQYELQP

[O-][S@@+](Cc1cncs1)C(c1ccccc1)c1ccccc1 [S-CE-123, (S)-5-((Benzhydrylsulfinyl)Methyl)Thiazole]
remaining binding at 2.8 µM [1]: 90% | remaining binding at 2.8 µM [2]: 100% | remaining binding at 2.8 µM [3]: 92% | remaining binding at 2.8 µM [4]: 100% | remaining binding at 2.8 µM [5]: 70%
